Consider 29 molecules from patent US4918073A, “Diarylalkyl-substituted alkylamines and medicaments containing them” (Hoechst Aktiengesellschaft, priority 1986, dated 1990).

Each structure is given as a SMILES string. Read-outs that look alike come from different tables or passages of the source.

The target of test [1] is 3H-nitrendipine binding, membrane preparation from the cortex of the rat brain. In words: displacement of tritium-labeled nitrendipine from rat brain cortex membranes (calcium-antagonistic activity). Conditions: 3H-nitrendipine 0.1 nM, TRIS buffer pH 7.4, 25° C., 60 minutes; read-out: IC50 (displacement of 50% of the radioactively labeled nitrendipine). The method, then: This test was carried out in a membrane preparation obtained from the cortex of the rat brain and washed several times, the method described by R. J. Gould et al. (Proc. Natl. Acad. Sci. U.S.A. 79, 3656 [1982]) essentially being used. […] The membrane fractions were separated off by vacuum filtration over Whatman-GF/F glass fiber filters and the radioactivity was measured in a liquid scintillation counter. […] The IC50 value, i.e. the concentration of test substance which is capable of displacing 50% of the radioactively labeled nitrendipine, is determined as the characteristic parameter.

In test [2] the test system is isolated guineapig heart. The test can be described thus: coronary circulation on the isolated guineapig heart (Langendorff). Conditions: Cavia porcellus, vs control hearts; for activation at 0.0001 mg: dose 0.1 μg via feed tube; for activation at 0.0005 mg: dose 0.5 μg via feed tube. The protocol:
For this test, female heparinized (2.5 mg of heparin sodium intraperitoneally 1 hour before sacrifice) guineapigs (220-250 g) were sacrificed by a blow on the neck. Immediately after the thorax has been opened, cardiac arrest was induced by cooling the heart with icecold saline solution. The ascending aorta was catheterized and connected to a non-recirculating perfusion system (hydrostatic pressure 65 cm of H2 O) in accordance with the method of Langendorff. Exposure of the heart was folowed by a perfusion period of 30 minutes for adaptation of the heart to the isolated state. A modified Krebs-Henseleit bicarbonate solution (113.8 mM NaCl, 22.0 mM NaHCO3, 4.7 mM KCl, 1.2 mM KH2 PO4, 1.1 mM MgSO4 ×7 H2 O and 2.5 mM CaCl2 ×2 H2 O, equilibrated with 95% of O2 and 5% of CO2, pH 7.41, 38° C.) was used as the perfusate. Glucose (11 mM) and sodium pyruvate (2.0 mM) were added. The osmolality of the perfusate was kept constant by adjusting the amount of NaCl. The hearts were loaded with a resting voltage of 2 pond (p). The heart rate and contraction force were recorded isometrically and the equipment for this (Hellige GmbH, Freiburg, Germany) were calibrated to 2 p. The coronary flow was determined with the aid of a drop counter, 7 drops corresponding to 1 ml. The values stated are expressed as the percentage increase in coronary circulation after administration of the test substance in the stated dosage via a feed tube (0.1% strength solution in propanediol), based on control hearts without addition of the test substance. The following table contains some of the values measured:
(a) mean value of 28 measurements
(b) the values stated result from in each case two measurements.

[3] abbreviates: values from in each case two measurements, read-out: Increase in coronary circulation.

One may read the IC50 as the midpoint of a concentration-inhibition curve. For `Fc1ccc(C(CCCN2CCN(CCOc3cccc4ncccc34)CC2)c2ccc(F)cc2)cc1` [Example 28], in test [1], the IC50 stood at 0.065 µM. Turning to `Fc1ccc(C(CCCN2CCN(CCOc3ccc(C(F)(F)F)cc3)CC2)c2ccc(F)cc2)cc1` [Example 50], in test [1], the concentration for half-maximal inhibition (IC50) was 0.004 µM. The activation at 0.0001 mg in test [2] (mean value of 28 measurements, read-out: Increase in coronary circulation (mean value)) worked out at 38%. For `Fc1ccc(C(CCCN2CCN(CCOc3ccc(Br)cc3)CC2)c2ccc(F)cc2)cc1` [Example 81], the concentration for half-maximal inhibition (IC50) in test [1] was 0.0036 µM. For the molecule `Fc1ccc(OCCN2CCN(CCCC(c3ccc(F)cc3)c3ccc(F)cc3)CC2)cc1` [Example 45], in test [1], the IC50 was found to be 0.011 µM. For the same molecule, in test [2] (setting [3]), the activation at 0.0001 mg fell in the range of 13 to 26% and the activation at 0.0005 mg fell in the range of 38 to 57%.

As to `O=[N+]([O-])c1ccc(OCCN2CCN(CCCC(c3ccc(F)cc3)c3ccc(F)cc3)CC2)cc1` [Example 41], the 50% inhibitory concentration (IC50) in test [1] came to 0.0085 µM. Turning to `Fc1ccc(C(CCCN2CCC(CCOc3cccc(C(F)(F)F)c3)CC2)c2ccc(F)cc2)cc1` [Example 74], the IC50 in test [1] was 0.001 µM. Turning to `Fc1ccc(C(CCCN2CCC(CCOc3ccccc3C(F)(F)F)CC2)c2ccc(F)cc2)cc1` [Example 73], in test [1], the IC50 came out at 0.0012 µM. Same read-out and setting: next, `Fc1ccc(C(CCCN2CCN(CCOC3CCCCC3)CC2)c2ccc(F)cc2)cc1` [Example 16, 1-[4,4-bis(4-fluorophenyl)butyl]-4-[(2-cyclohexoxy)-ethyl]piperazine]: 0.022 µM; `Fc1ccc(C(CCCN2CCN(CCCCOc3cccc4cnccc34)CC2)c2ccc(F)cc2)cc1` [Example 22]: 0.085 µM; `CN(C)S(=O)(=O)c1ccc(OCCN2CCN(CCCC(c3ccc(F)cc3)c3ccc(F)cc3)CC2)cc1` [Example 83]: 0.07 µM. On to `Fc1ccc(C(CCCN2CCC(CCOc3ccc(C(F)(F)F)cc3)CC2)c2ccc(F)cc2)cc1` [Example 71], for which, in test [1], the IC50 came to 0.0042 µM. As for `Fc1ccc(C(CCCN2CCN(CCOc3cccc(C(F)(F)F)c3)CC2)c2ccc(F)cc2)cc1` [Example 68], in test [1], the concentration for half-maximal inhibition (IC50) amounted to 0.0009 µM. In addition, the activation at 0.0001 mg in test [2] (setting [3]) was 20 to 29%. On to `Fc1ccc(C(CCCN2CCC(CCOc3cccc4cnccc34)CC2)c2ccc(F)cc2)cc1` [Example 32], for which the IC50 in test [1] was 0.012 µM. On the same count and under the same terms, as for `CC(=O)c1cccc(OCCN2CCN(CCCC(c3ccc(F)cc3)c3ccc(F)cc3)CC2)c1` [Example 64], the figure is 0.019 µM. As for `O=C(O)C1CN(CCCC(c2ccc(F)cc2)c2ccc(F)cc2)CCN1CCOc1cccc2ccccc12` (centres unmarked) [Example 61], in test [1], the IC50 was 0.06 µM. Still for that read-out and setting: next, `Fc1ccc(C(CCCN2CCN(CCOc3cc(C(F)(F)F)cc(C(F)(F)F)c3)CC2)c2ccc(F)cc2)cc1` [Example 69]: 0.002 µM. With `Fc1ccc(C(CCCN2CCN(CCOc3cccc4ccccc34)CC2)c2ccc(F)cc2)cc1` [Example 18, 1-[4,4-bis(4-fluorophenyl)butyl]-4-[2-(1-naphthyloxy)ethyl]piperazine], in test [1], the 50% inhibitory concentration (IC50) was found to be 0.048 µM.

As for `CN(CCCC(c1ccc(F)cc1)c1ccc(F)cc1)C1CCN(CCOc2cccc3cnccc23)CC1` [Example 37], the IC50 in test [1] was 0.4 µM.

Turning to `Fc1ccc(C(CCCN2CCN(CCOc3c(Cl)cccc3Cl)CC2)c2ccc(F)cc2)cc1` [Example 62], in test [2] (setting [3]), the activation at 0.0001 mg is 9 to 13%. `CSc1ccc(OCCN2CCN(CCCC(c3ccc(F)cc3)c3ccc(F)cc3)CC2)cc1` [Example 75]: the IC50 in test [1] came out at 0.009 µM. In the case of `Fc1cccc(C(CCCN2CCN(CCOc3cccc4cnccc34)CC2)c2cccc(F)c2)c1` [Example 36], the IC50 in test [1] was 0.09 µM. Consider `Cc1ccc(OCCN2CCN(CCCC(c3ccc(F)cc3)c3ccc(F)cc3)CC2)cc1` [Example 17], for which, in test [1], the IC50 is 0.012 µM. In test [2] (setting [3]), the activation at 0.0001 mg was 14 to 17% and the activation at 0.0005 mg is 33 to 38%. Consider `CCOC(=O)c1ccc(OCCN2CCN(CCCC(c3ccc(F)cc3)c3ccc(F)cc3)CC2)cc1` [Example 70], for which, in test [2] (setting [3]), the activation at 0.0005 mg lay in the range of 36 to 52%. On to `CC(C)(C)c1ccc(OCCN2CCN(CCCC(c3ccc(F)cc3)c3ccc(F)cc3)CC2)cc1` [Example 46], for which, in test [2] (setting [3]), the activation at 0.0001 mg was 12 to 23% and the activation at 0.0005 mg was 21 to 36%.

With `Cc1cccc(C)c1NC(=O)CN1CCN(CCCC(c2ccc(F)cc2)c2ccc(F)cc2)CC1` [Lidoflazine, reference compound], the half-maximal inhibitory concentration (IC50) in test [1] came to 0.43 µM. As to `NC(=O)C1CN(CCOc2ccccc2)CCN1CCCC(c1ccc(F)cc1)c1ccc(F)cc1` (centres unmarked) [Example 56], the IC50 in test [1] amounted to 0.18 µM. For the same molecule, in test [2] (dose 1.0 μg via feed tube, values from in each case two measurements, read-out: Increase in coronary circulation), the activation at 0.001 mg fell in the range of 40 to 65%. For `COc1ccc(OCCN2CCN(CCCC(c3ccc(F)cc3)c3ccc(F)cc3)CC2)cc1` [Example 42], in test [2] (setting [3]), the activation at 0.0005 mg is 20 to 29%. Take `CC(=O)c1ccccc1OCCN1CCN(CCCC(c2ccc(F)cc2)c2ccc(F)cc2)CC1` [Example 66]: the IC50 in test [1] stood at 0.012 µM. Consider `Fc1ccc(C(CCCN2CCN(CCOc3ccccc3C(F)(F)F)CC2)c2ccc(F)cc2)cc1` [Example 67], for which, in test [2] (setting [3]), the activation at 0.0001 mg was in the range of 5 to 21% and the activation at 0.0005 mg fell in the range of 23 to 35%.
